{"source": "paper PMC10755693", "about": "“Widespread Family of NAD^+-Dependent Sulfoquinovosidases at the Gateway to Sulfoquinovose Catabolism” (Journal of the American Chemical Society, 2023)", "biological_target": "T1, ArSqgA (Arthrobacter sp. U41, UniProt Z9RXK5N058)", "T1 construct": "synthetic gene with codons harmonized for E. coli; homodimer; GH188", "T1 sequence (Z9RXK5N058 14-392)": "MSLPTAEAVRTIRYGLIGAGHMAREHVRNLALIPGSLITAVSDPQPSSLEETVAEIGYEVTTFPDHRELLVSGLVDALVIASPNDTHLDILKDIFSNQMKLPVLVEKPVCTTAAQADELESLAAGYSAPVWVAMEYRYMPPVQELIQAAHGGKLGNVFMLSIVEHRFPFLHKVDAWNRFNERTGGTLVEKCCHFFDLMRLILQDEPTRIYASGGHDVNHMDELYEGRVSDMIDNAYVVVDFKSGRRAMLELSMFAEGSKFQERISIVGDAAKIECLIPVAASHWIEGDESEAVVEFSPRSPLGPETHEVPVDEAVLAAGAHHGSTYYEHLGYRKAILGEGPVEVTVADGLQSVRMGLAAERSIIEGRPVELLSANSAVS", "assay": "X-ray crystal structure, […] Å", "assay_type": "binding", "conditions": "Rossmann domain cleft; binary complex", "data": [{"smiles": "NC(=O)c1ccc[n+]([C@@H]2O[C@H](COP(=O)(O)OP(=O)(O)OC[C@H]3O[C@@H](n4cnc5c(N)ncnc54)[C@H](O)[C@@H]3O)[C@@H](O)[C@H]2O)c1", "note": "[NAD^+]", "values": [{"measurement": "X-ray crystal structure, 2.65 Å", "result": "modeling of a single molecule of NAD^+ bound in an extended conformation in each monomer"}]}]}
